One data set addresses T1, Trypsin (Sus scrofa, UniProt P00761).
T1 construct: purchased Sigma Aldrich
In words: Determination of IC50 for various proteases (chromogenic substrate, pNA release at 405 nm): trypsin. Type of data set: biochemical. Conditions: hog trypsin 2 nM, substrate S-2222 0.5 mM; Mean ± SD. As for the experimental part:
(§1) A 6 mM solution of the test compound in DMSO was prepared. In a V-bottom micro plate the 6 mM compound solution was diluted 6 times in DMSO to obtain a concentration row with the following concentrations: 6 mM, 1.8 mM, 540 μM, 162 μM, 48.8 μM, 14.4 μM, and 4 μM. From this DMSO master plate 1:20 dilutions in 10 mM MOPS pH 8.3 were prepared to obtain solutions of 300, 90, 27, 8.1, 2.44, 0.72 and 0.22 μM in MOPS buffer and 5% DMSO.
(§2) 100 μl of this solution were pipetted into a flat bottom 96 well microplate and placed into a Tecan infinite 200 plate reader. Before measurement, 50 μl of protease solution and, subsequently 50 μl substrate solution were added by the machine. The liberation of free para nitroanilide was detected at 405 nm. The protease solution was freshly prepared by diluting to the desired concentration from a stock solution in 60 mM MOPS; 600 mM NaCl; 20 mM CaCl2; 10% DMSO; 0.4% PEG 6000 pH 8.3. The substrate solution was prepared by dissolving the solid substrate in an adequate amount of water to get the desired concentrations. The used protease and substrate solutions are given below:
(§3) All enzymes except trypsin were from human origin (American diagnostic). Trypsin was hog trypsin (Sigma Aldrich). Substrates were purchased from Chromogenix. […]

The target in another data set is T2, Thrombin (Homo sapiens, UniProt P00734).
T2 construct: purchased American diagnostic
As to the kind of experiment: Determination of IC50 for various proteases: thrombin. Particulars: thrombin 6 nM, substrate S-2266 0.5 mM; Mean ± SD. Type of data set: biochemical. On the procedure: as §1, §2, §3

Another data set has as its target T3, Kallikrein (Homo sapiens, UniProt P03952).
T3 construct: purchased American diagnostic
In words: Determination of IC50 for various proteases: kallikrein. Type of data set: biochemical. Conditions: kallikrein 2 nM, substrate S-2288 0.5 mM; Mean ± SD. On the procedure: as §1, §2, §3

The next data set deals with T4, Factor Xa (Homo sapiens, UniProt P00742).
T4 construct: purchased American diagnostic
T4 sequence (P00742 235-488 limits assumed): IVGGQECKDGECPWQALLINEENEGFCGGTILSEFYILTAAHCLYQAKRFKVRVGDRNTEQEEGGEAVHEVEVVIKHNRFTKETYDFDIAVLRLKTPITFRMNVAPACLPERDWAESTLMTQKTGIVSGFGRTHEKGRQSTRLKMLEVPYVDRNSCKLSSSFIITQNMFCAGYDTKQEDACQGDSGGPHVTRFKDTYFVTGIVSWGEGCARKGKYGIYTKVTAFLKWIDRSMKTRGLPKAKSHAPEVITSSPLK
T4 sequence (P00742 41-179 partner limits assumed): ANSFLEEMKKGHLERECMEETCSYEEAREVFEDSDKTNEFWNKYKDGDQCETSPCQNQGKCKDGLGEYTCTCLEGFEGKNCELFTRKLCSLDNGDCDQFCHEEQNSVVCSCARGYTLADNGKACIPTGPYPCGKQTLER
In words: Determination of IC50 for various proteases: Factor Xa. Conditions: Factor Xa 5 nM, substrate S-2288 0.5 mM; Mean ± SD. Type of data set: biochemical. As for the experimental part: as §1, §2, §3

For data set [1], the system named is C-terminal agrin fragment (CAF). In words: Analysis of serum CAF levels by western blotting in treated mice. Type of data set: in vivo, C57/BL6 mice. Particulars: mouse serum pools, 25 mg/kg x 3 s.c., 5 h after last injection, western blot normalized to vehicle. As for the experimental part:
Adult (P50) C57/BL6 mice from Charles River were used for the experiments. All animal experiments are performed in accordance with international guidelines for proper conduct of animal experiment under jurisdiction of the Swiss law (Permit number ZH-18/2008). For every mouse in the experiment the well-being during the interventions is documented in a score sheet.
Three adult mice were treated with 2.5 ml/kg of a 10 mg/ml solution of the compound of Example 1 in 100% DMSO. This corresponds to a dose of 25 mg/kg active ingredient. As vehicle control, 3 mice were treated with 2.5 ml/kg of 100% DMSO. Each mouse received three subcutaneous injections. Between dose 1 and dose 2 there were 8 h, between dose 2 and dose 3 16 h. 5 h after the last injection the mice were euthanatized with CO2.
Before the first injection the mice were weighted and ˜100 μl of blood was collected from the lateral tail vein. Serum was prepared with centrifugation of blood samples in Microvette 500 Z-Gel tubes (10,000 g, 20° C., 5 min). […]
After staining for CAF the membrane was washed thoroughly and reused for a staining for endogenous mouse antibodies that served as loading control. […] After imaging with a Stella imaging system (Raytest) the intensity of the CAF bands was measured with AIDA picture analysis software (Raytest) and normalized to the loading levels determined from mouse antibody light chains. […]

Broadly, the IC50 is the point on the concentration scale where inhibition reaches its midpoint. A high value points to a need for much substance. Broadly, the melting point is the temperature of the solid-liquid transition.

T3 sequence (P03952 391-638 limits assumed): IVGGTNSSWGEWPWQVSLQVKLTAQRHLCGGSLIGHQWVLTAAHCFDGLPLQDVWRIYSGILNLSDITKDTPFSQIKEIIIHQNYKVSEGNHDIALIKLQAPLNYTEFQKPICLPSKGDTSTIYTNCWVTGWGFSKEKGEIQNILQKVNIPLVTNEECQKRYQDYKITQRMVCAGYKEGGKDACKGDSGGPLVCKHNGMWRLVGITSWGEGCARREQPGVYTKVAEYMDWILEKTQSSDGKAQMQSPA
T3 sequence (P03952 20-390 limits assumed): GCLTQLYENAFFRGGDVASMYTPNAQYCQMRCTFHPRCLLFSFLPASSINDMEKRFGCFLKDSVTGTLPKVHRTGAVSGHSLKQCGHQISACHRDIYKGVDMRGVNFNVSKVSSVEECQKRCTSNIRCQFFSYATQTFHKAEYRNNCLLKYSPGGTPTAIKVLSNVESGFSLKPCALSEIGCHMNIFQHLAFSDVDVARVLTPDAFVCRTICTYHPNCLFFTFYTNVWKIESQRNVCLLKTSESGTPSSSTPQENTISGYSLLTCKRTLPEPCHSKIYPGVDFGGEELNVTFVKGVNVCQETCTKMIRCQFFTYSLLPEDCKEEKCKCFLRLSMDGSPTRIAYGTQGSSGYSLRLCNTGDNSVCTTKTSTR
T1 sequence (P00761 9-231): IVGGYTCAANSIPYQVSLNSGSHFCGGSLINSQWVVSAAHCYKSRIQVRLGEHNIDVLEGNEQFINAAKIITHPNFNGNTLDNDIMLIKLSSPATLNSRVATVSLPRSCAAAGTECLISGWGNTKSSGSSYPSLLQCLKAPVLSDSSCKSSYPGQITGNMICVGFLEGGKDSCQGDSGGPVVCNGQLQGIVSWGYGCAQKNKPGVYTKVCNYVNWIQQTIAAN

Compound `O=C(Nc1ccc(C(=O)Nc2ccc(Cl)cc2)c(O)c1)c1ccc(-c2nc3cc(Cl)c(Cl)cc3[nH]2)cc1` [Example 1, N-(4-Chlorophenyl)-4-(4-(5,6-dichloro-1H-benzo[d]imidazol-2-yl)benzamido)-2-hydroxybenzamide] came in with a melting point above 220 °C. This compound gave an IC50 against Trypsin above 150 µM. The compound further yielded an IC50 against Thrombin above 150 µM. This compound displayed an IC50 on Kallikrein above 150 µM. The IC50 on Factor Xa is 84.8 ± 46.4 µM. Besides, the “Average CAF levels” value in data set [1] was 66.6 % of vehicle.

Source of the values: patent US20130245064A1, “NOVEL NEUROTRYPSIN INHIBITORS” (priority 2010, published 2013).
